Laboratory results reported in US8383619B2, “Pharmaceutical compounds” (Astex Therapeutics Limited, priority 2008, dated 2013).

What was measured:
Experiment in all cases: Anti-proliferative assay (Oncodesign)
Assay type in all cases: cell-based
HCC1954 = conditions: Homo sapiens; HCC1954 (BREAST); read-out: IC50 (Concentration of test compound)
Experimental: (§1) The anti-proliferative activities of the parent compounds of the pro-drugs of the invention may be determined by measuring the ability of the compounds to inhibition of cell growth in a number of cell lines such as the human colon cancer cell line HCT116. Inhibition of cell growth is measured using the Alamar Blue assay (Nociari, M. M, Shalev, A., Benias, P., Russo, C. Journal of Immunological Methods 1998, 213, 157-167). The method is based on the ability of viable cells to reduce resazurin to its fluorescent product resorufin. For each proliferation assay cells are plated onto 96 well plates and allowed to recover for 16 hours prior to the addition of inhibitor compounds for a further 72 hours. At the end of the incubation period 10% (v/v) Alamar Blue is added and incubated for a further 6 hours prior to determination of fluorescent product at […]. In the case of the non-proliferating cell assay cells are maintained at confluence for 96 hour prior to the addition of inhibitor compounds for a further 72 hours. The number of viable cells is determined by Alamar Blue assay as before. Cell lines may be obtained from the ECACC (European Collection of cell Cultures).
(§2) The parent compound of the pro-drugs of Examples 1 to 25 i.e. (2,4-dihydroxy-5-isopropyl-phenyl)-[5-(4-methyl-piperazin-1-ylmethyl)-1,3-dihydro-isoindol-2-yl]-methanone, in the form of its L-lactate salt, was tested in anti-proliferative assays against one hundred cell lines by Oncodesign (Dijon, France). The IC50 values against each cell line are set out in the table below and the figures in the table refer to nanomolar concentrations. The compounds were tested up to a concentration of 10,000 nanomolar.

RPMI 8226 = conditions: Homo sapiens; RPMI 8226 (BLOOD); read-out: IC50 (Concentration of test compound)
Experimental: as §1, §2

NCI-H520 = conditions: Homo sapiens; NCI-H520 (LUNG); read-out: IC50 (Concentration of test compound)
Experimental: as §1, §2

NIH: OVCAR-3/CPT20 = conditions: Homo sapiens; NIH: OVCAR-3/CPT20 (OVARY); read-out: IC50 (Concentration of test compound)
Experimental: as §1, §2

KG-1 = conditions: Homo sapiens; KG-1 (BLOOD); read-out: IC50 (Concentration of test compound)
Experimental: as §1, §2

LB1617-HNSCC = LB1617-HNSCC (HEAD AND NECK); read-out: IC50 (Concentration of test compound)
Experimental: as §1, §2

CCRF-CEM = conditions: Homo sapiens; CCRF-CEM (BLOOD); read-out: IC50 (Concentration of test compound)
Experimental: as §1, §2

Hep 3B2.1-7 = Hep 3B2.1-7 (LIVER); read-out: IC50 (Concentration of test compound)
Experimental: as §1, §2

BB49-HNSCC = BB49-HNSCC (HEAD AND NECK); read-out: IC50 (Concentration of test compound)
Experimental: as §1, §2

CCRF-CEM/VLB = conditions: Homo sapiens; CCRF-CEM/VLB (BLOOD); read-out: IC50 (Concentration of test compound)
Experimental: as §1, §2

Raji = conditions: Homo sapiens; Raji (BLOOD); read-out: IC50 (Concentration of test compound)
Experimental: as §1, §2

NCI-H460 = conditions: Homo sapiens; NCI-H460 (LUNG); read-out: IC50 (Concentration of test compound)
Experimental: as §1, §2

Ramos = conditions: Homo sapiens; Ramos (BLOOD); read-out: IC50 (Concentration of test compound)
Experimental: as §1, §2

Caki-1 = conditions: Homo sapiens; Caki-1 (KIDNEY); read-out: IC50 (Concentration of test compound)
Experimental: as §1, §2

HL-60 = conditions: Homo sapiens; HL-60 (BLOOD); read-out: IC50 (Concentration of test compound)
Experimental: as §1, §2

BxPC-3 = conditions: Homo sapiens; BxPC-3 (PANCREAS); read-out: IC50 (Concentration of test compound)
Experimental: as §1, §2

A-431 = conditions: Homo sapiens; A-431 (SKIN); read-out: IC50 (Concentration of test compound)
Experimental: as §1, §2

ZR-75-1 = conditions: Homo sapiens; ZR-75-1 (BREAST); read-out: IC50 (Concentration of test compound)
Experimental: as §1, §2

IGROV-1/CDDP = conditions: Homo sapiens; IGROV-1/CDDP (OVARY); read-out: IC50 (Concentration of test compound)
Experimental: as §1, §2

KATO III = conditions: Homo sapiens; KATO III (STOMACH); read-out: IC50 (Concentration of test compound)
Experimental: as §1, §2

LoVo = conditions: Homo sapiens; LoVo (COLON); read-out: IC50 (Concentration of test compound)
Experimental: as §1, §2

NCI-H69 = conditions: Homo sapiens; NCI-H69 (LUNG); read-out: IC50 (Concentration of test compound)
Experimental: as §1, §2

OCI-AML2 = conditions: Homo sapiens; OCI-AML2 (BLOOD); read-out: IC50 (Concentration of test compound)
Experimental: as §1, §2

SUP-B15 = conditions: Homo sapiens; SUP-B15 (BLOOD); read-out: IC50 (Concentration of test compound)
Experimental: as §1, §2

PANC-1 = conditions: Homo sapiens; PANC-1 (PANCREAS); read-out: IC50 (Concentration of test compound)
Experimental: as §1, §2

## CC(C)c1cc(C(=O)N2Cc3ccc(CN4CCN(C)CC4)cc3C2)c(O)cc1O [(2,4-dihydroxy-5-isopropyl-phenyl)-[5-(4-methyl-piperazin-1-ylmethyl)-1,3-dihydro-isoindol-2-yl]-methanone]
HCC1954
  IC50: 0.028 µM
RPMI 8226
  IC50: 0.01 µM
NCI-H520
  IC50: 0.098 µM
NIH: OVCAR-3/CPT20
  IC50: > 10 µM
KG-1
  IC50: > 10 µM
LB1617-HNSCC
  IC50: 0.139 µM
CCRF-CEM
  IC50: 0.107 µM
Hep 3B2.1-7
  IC50: 0.095 µM
BB49-HNSCC
  IC50: 0.146 µM
CCRF-CEM/VLB
  IC50: > 10 µM
Raji
  IC50: 0.881 µM
NCI-H460
  IC50: 0.118 µM
Ramos
  IC50: 0.046 µM
Caki-1
  IC50: > 10 µM
HL-60
  IC50: 0.389 µM
BxPC-3
  IC50: 0.196 µM
A-431
  IC50: 3.8 µM
ZR-75-1
  IC50: 0.131 µM
IGROV-1/CDDP
  IC50: 0.147 µM
KATO III
  IC50: 0.162 µM
LoVo
  IC50: 0.051 µM
NCI-H69
  IC50: 0.162 µM
OCI-AML2
  IC50: > 10 µM
SUP-B15
  IC50: 0.037 µM
PANC-1
  IC50: 0.327 µM
